Each structure is given as a SMILES string.

The target in assay [1] is T1, Bgl.bli1 (Bacillus licheniformis, UniProt Q65D83).
T1 construct: gene BL01920; cloning primers encode start MARQTW and end TEEFRYK
T1 sequence (Q65D83 1-478): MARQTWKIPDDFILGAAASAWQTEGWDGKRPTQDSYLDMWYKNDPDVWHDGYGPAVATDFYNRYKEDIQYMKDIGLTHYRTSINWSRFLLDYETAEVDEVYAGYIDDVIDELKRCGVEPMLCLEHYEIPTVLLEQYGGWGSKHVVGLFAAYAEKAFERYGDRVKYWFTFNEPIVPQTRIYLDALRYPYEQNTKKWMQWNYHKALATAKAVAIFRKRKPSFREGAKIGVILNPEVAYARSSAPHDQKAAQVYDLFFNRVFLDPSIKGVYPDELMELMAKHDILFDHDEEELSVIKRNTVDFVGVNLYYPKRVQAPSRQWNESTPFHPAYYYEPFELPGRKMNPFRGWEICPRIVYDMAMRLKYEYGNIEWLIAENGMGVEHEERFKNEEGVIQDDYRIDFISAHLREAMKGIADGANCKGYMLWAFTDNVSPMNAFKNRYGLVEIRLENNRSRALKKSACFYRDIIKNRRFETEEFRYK
Briefly: pNPG hydrolysis with added glucose. The assay is classed as biochemical. Conditions: substrate pNPG, called competitive by the authors. The text has this:
pNPG hydrolysis with added glucose on Bgl.bli1

Assay [2] concerns the target T1, Bgl.bli1. Briefly: pNPG hydrolysis. The assay is classed as biochemical. The conditions noted are these: standard assay, no glucose added.

For `OC[C@H]1OC(O)[C@H](O)[C@@H](O)[C@@H]1O` (some centres unmarked) [glucose], the “Relative activity (%) at 10% (w/w) glucose” value in assay [1] was 49.26%. For `O=[N+]([O-])c1ccc(O[C@@H]2O[C@H](CO)[C@@H](O)[C@H](O)[C@H]2O)cc1` [p-nitrophenyl-β-D-glucopyranoside], the pNPG hydrolysis entry in assay [2] is listed as “Bgl.bli1 activity was determined by measuring the hydrolysis of p-nitrophenyl-β-D-glucopyranoside (pNPG)”.

The values are drawn from paper PMC5673865, “Characterization of a beta-glucosidase from Bacillus licheniformis and its effect on bioflocculant degradation” (AMB Express, 2017).
